Experimental data: patent US5807535A, “Metal complexes of hydroxyaryl containing aminocarboxylic acid chelating agents” (Australian Nuclear Science & Technology Organisation, priority 1992, dated 1998)
Like-named read-outs stand apart in the source and are kept apart here.

Columns and labels:
[1] = Biodistribution of 99mTc complexes in rats; assay type: in vivo, Australian Albino Wistar Rats; details: rat, rats; for tissue uptake at 0.5 min: 30 sec; for tissue uptake at 0.05 h: 3 min
How it was run: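 Chelators were dissolved in basic saline, brought to about pH 6 with HCl, and reduced with excess stannous chloride before one equivalent volume of sodium 99mTcO4 (10-50 mCi/ml) was added, giving roughly 1 mg/ml chelator. Labelling efficacy was checked by ITLC-SG. Complexes were diluted in saline to 15 μCi/100 μl for rat biodistribution, with tissue uptake expressed as %ID/g.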

[2] = Biodistribution of 67Ga complexes in mice; assay type: in vivo, balb/c mice
How it was run: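 Ligand labelled with 67Ga citrate at pH 12, 40 °C for 40 min, diluted in saline and filter-sterilised. Balb/c mice given ~3.7×10^5 Bq intravenously via tail vein; five animals sacrificed at each of six time points.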

[3] = blood, read-out: biodistribution blood
[4] = bone, read-out: biodistribution bone
[5] = brain, read-out: biodistribution brain
[6] = eyes, read-out: biodistribution eyes
[7] = heart, read-out: biodistribution heart
[8] = kidneys, read-out: biodistribution kidneys
[9] = liver, read-out: biodistribution liver
[10] = lungs, read-out: biodistribution lungs
[11] = muscle, read-out: biodistribution muscle
[12] = pancreas, read-out: biodistribution pancreas
[13] = skin, read-out: biodistribution skin
[14] = spleen, read-out: biodistribution spleen
[15] = stomach, read-out: biodistribution stomach
[16] = tail, read-out: biodistribution tail
[17] = thymus, read-out: biodistribution thymus
[18] = thyroid, read-out: biodistribution thyroid
[19] = total git, read-out: biodistribution tot GIT

tissue uptake at 0.5 min [1, 3]: 4.92 %ID/g | tissue uptake at 1 min [1, 3]: 4.22 %ID/g | tissue uptake at 0.05 h [1, 3]: 3.26 %ID/g | tissue uptake at 5 min [1, 3]: 3.13 %ID/g | tissue uptake at 10 min [1, 3]: 2.59 %ID/g | tissue uptake at 0.5 min [1, 4]: 0.37 %ID/g | tissue uptake at 1 min [1, 4]: 0.45 %ID/g | tissue uptake at 0.05 h [1, 4]: 0.42 %ID/g | tissue uptake at 5 min [1, 4]: 0.37 %ID/g | tissue uptake at 10 min [1, 4]: 0.36 %ID/g | tissue uptake at 0.5 min [1, 5]: 0.2 %ID/g | tissue uptake at 1 min [1, 5]: 0.22 %ID/g | tissue uptake at 0.05 h [1, 5]: 0.16 %ID/g | tissue uptake at 5 min [1, 5]: 0.17 %ID/g | tissue uptake at 10 min [1, 5]: 0.14 %ID/g | tissue uptake at 0.5 min [1, 6]: 0.17 %ID/g | tissue uptake at 1 min [1, 6]: 0.23 %ID/g | tissue uptake at 0.05 h [1, 6]: 0.19 %ID/g | tissue uptake at 5 min [1, 6]: 0.18 %ID/g | tissue uptake at 10 min [1, 6]: 0.18 %ID/g | tissue uptake at 0.5 min [1, 7]: 1.81 %ID/g | tissue uptake at 1 min [1, 7]: 1.62 %ID/g | tissue uptake at 0.05 h [1, 7]: 1.24 %ID/g | tissue uptake at 5 min [1, 7]: 1.15 %ID/g | tissue uptake at 10 min [1, 7]: 1.06 %ID/g | tissue uptake at 0.5 min [1, 8]: 4.35 %ID/g | tissue uptake at 1 min [1, 8]: 5.7 %ID/g | tissue uptake at 0.05 h [1, 8]: 4.7 %ID/g | tissue uptake at 5 min [1, 8]: 6.04 %ID/g | tissue uptake at 10 min [1, 8]: 3.61 %ID/g | tissue uptake at 0.5 min [1, 9]: 1.11 %ID/g | tissue uptake at 1 min [1, 9]: 0.97 %ID/g | tissue uptake at 0.05 h [1, 9]: 0.83 %ID/g | tissue uptake at 5 min [1, 9]: 0.79 %ID/g | tissue uptake at 10 min [1, 9]: 0.69 %ID/g | tissue uptake at 0.5 min [1, 10]: 1.66 %ID/g | tissue uptake at 1 min [1, 10]: 1.69 %ID/g | tissue uptake at 0.05 h [1, 10]: 1.31 %ID/g | tissue uptake at 5 min [1, 10]: 1.25 %ID/g | tissue uptake at 10 min [1, 10]: 1.17 %ID/g | tissue uptake at 0.5 min [1, 11]: 0.25 %ID/g | tissue uptake at 1 min [1, 11]: 0.3 %ID/g | tissue uptake at 0.05 h [1, 11]: 0.27 %ID/g | tissue uptake at 5 min [1, 11]: 0.25 %ID/g | tissue uptake at 10 min [1, 11]: 0.23 %ID/g | tissue uptake at 0.5 min [1, 12]: 0.8 %ID/g | tissue uptake at 1 min [1, 12]: 0.73 %ID/g | tissue uptake at 0.05 h [1, 12]: 0.55 %ID/g | tissue uptake at 5 min [1, 12]: 0.56 %ID/g | tissue uptake at 10 min [1, 12]: 0.43 %ID/g | tissue uptake at 0.5 min [1, 13]: 0.31 %ID/g | tissue uptake at 1 min [1, 13]: 0.38 %ID/g | tissue uptake at 0.05 h [1, 13]: 0.43 %ID/g | tissue uptake at 5 min [1, 13]: 0.41 %ID/g | tissue uptake at 10 min [1, 13]: 0.46 %ID/g | tissue uptake at 0.5 min [1, 14]: 0.83 %ID/g | tissue uptake at 1 min [1, 14]: 0.98 %ID/g | tissue uptake at 0.05 h [1, 14]: 0.83 %ID/g | tissue uptake at 5 min [1, 14]: 0.83 %ID/g | tissue uptake at 10 min [1, 14]: 0.72 %ID/g | tissue uptake at 0.5 min [1, 15]: 0.47 %ID/g | tissue uptake at 1 min [1, 15]: 0.42 %ID/g | tissue uptake at 0.05 h [1, 15]: 0.36 %ID/g | tissue uptake at 5 min [1, 15]: 0.37 %ID/g | tissue uptake at 10 min [1, 15]: 0.24 %ID/g | tissue uptake at 0.5 min [1, 16]: 0.22 %ID/g | tissue uptake at 1 min [1, 16]: 0.14 %ID/g | tissue uptake at 0.05 h [1, 16]: 0.17 %ID/g | tissue uptake at 5 min [1, 16]: 0.15 %ID/g | tissue uptake at 10 min [1, 16]: 0.19 %ID/g | tissue uptake at 0.5 min [1, 17]: 0.63 %ID/g | tissue uptake at 1 min [1, 17]: 0.56 %ID/g | tissue uptake at 0.05 h [1, 17]: 0.45 %ID/g | tissue uptake at 5 min [1, 17]: 0.54 %ID/g | tissue uptake at 10 min [1, 17]: 0.39 %ID/g | tissue uptake at 0.5 min [1, 18]: 1.85 %ID/g | tissue uptake at 1 min [1, 18]: 2.43 %ID/g | tissue uptake at 0.05 h [1, 18]: 1.59 %ID/g | tissue uptake at 5 min [1, 18]: 1.73 %ID/g | tissue uptake at 10 min [1, 18]: 1.71 %ID/g | tissue uptake at 0.5 min [1, 19]: 0.35 %ID/g | tissue uptake at 1 min [1, 19]: 0.34 %ID/g | tissue uptake at 0.05 h [1, 19]: 0.31 %ID/g | tissue uptake at 5 min [1, 19]: 0.29 %ID/g | tissue uptake at 10 min [1, 19]: 0.27 %ID/g | biodistribution urine ([2]; 1 min): 6.30 % ID | biodistribution urine ([2]; 3 min): 8.94 % ID | biodistribution urine ([2]; 5 min): 15.34 % ID | biodistribution urine ([2]; 10 min): 14.23 % ID | biodistribution urine ([2]; 30 min): 7.76 % ID | biodistribution urine ([2]; 120 min): 3.55 % ID
Structure (SMILES): Nc1ccc(O)c(NC(=O)CN(CCN(CC(=O)O)CC(=O)Nc2cc(N)ccc2O)CC(=O)O)c1 [Compound 5]
